Data on four molecules can be found in patent publication US4560695A, “Isoxazolyl and isothiazolyl aromatase inhibitors” (Eli Lilly and Company, priority 1984, dated 1985).

The subject of one assay is estrogen synthesis. The assay is described as follows: Estrogen synthesis inhibition in rats (uterine weight and ovarian steroid concentrations). Particulars: seven days. It counts as in vivo, Wistar rats. Here is the method: By virtue of their ability to inhibit the enzyme aromatase, the compounds of this invention are able to inhibit the synthesis of estrogens in mammals, thereby making the compounds useful in the treatment of estrogen-dependent diseases, such as breast cancer.
Immature female Wistar rats (44-55 grams) were divided into control and test groups of 5-8 animals each. Test compounds were administered for seven days as a component of the diet. Control animals received diet without the test compound. Beginning on the fourth day of the test, all animals treated with the test compound and one half of the control animals were given a subcutaneous injection of 1.0 mg of testosterone propionate in corn oil. The remaining control animals received only an equivalent volume of corn oil. On the seventh day of the test, rats treated with testosterone propionate were injected subcutaneously with 100 μCi of [^3 H]-testosterone in 50 μl of 3:1 (v/v) saline-ethanol.
After two hours, the animals were killed by decapitation. Uteri were isolated, trimmed of extraneous connective tissue, and weighed. […] In the control animals treated with testosterone propionate, estrogens produced by aromatization stimulated the uterus resulting in an increase in weight. […] Ovaries from rats treated with [^3 H]-testosterone were excised, cleaned of extraneous tissue, and homogenized in 2.5 ml of a 1.0 mM potassium phosphate buffer containing 3.0 mM MgCl2.6H2 O, 320 mM sucrose, and 0.25% Triton X-100 (polyethylene glycol p-isooctyl phenyl ether, Rohm and Haas) at pH 6.5. The ovarian steroids were extracted with 1.5 ml of 9:1 (v/v) toluene/ethanol to which had been added 25 to 100 mcg each of unlabelled estradiol, estriol, and estrone, and approximately 1000 dpm of [^14 C]-estradiol. The samples were vortexed, centrifuged at 500×g for 10 minutes, and the organic phase was transferred to a conical vial. Two additional extractions were performed on the residue in the same way. The pooled organic extracts were evaporated for subsequent thin-layer chromatography.
Ovarian proteins were precipitated by the addition of 5.0 ml of ethanol to the remaining aqueous phase. […] Protein was determined according to the method of Bradford, Analytical Biochemistry, 72, 248 (1976). […]
The visible spots were marked and the plates were sprayed with primulin (0.001% in 4:1 v/v acetone/water) according to the method of Wright, J. Chromatography, 59, 220 (1971) which allowed for the identification of additional steroids under 365 nm UV light. […] The organic solvent was evaporated and 10.0 ml of scintillation fluid (Beckman Ready Solv-NA) was added to the vials. Samples were analyzed by liquid scintillation spectrometry. […] Steroid concentrations are expressed as femtomoles per milligram protein.

For the next assay, the target named is T1, aromatase (Rattus norvegicus, UniProt P22443).
T1 construct: ovarian microsomes are obtained from rats treated with pregnant mares serum gonadotropin; from tissue; host or cells: ovarian microsomes from rats treated with pregnant mares serum gonadotropin
T1 sequence (P22443 1-508): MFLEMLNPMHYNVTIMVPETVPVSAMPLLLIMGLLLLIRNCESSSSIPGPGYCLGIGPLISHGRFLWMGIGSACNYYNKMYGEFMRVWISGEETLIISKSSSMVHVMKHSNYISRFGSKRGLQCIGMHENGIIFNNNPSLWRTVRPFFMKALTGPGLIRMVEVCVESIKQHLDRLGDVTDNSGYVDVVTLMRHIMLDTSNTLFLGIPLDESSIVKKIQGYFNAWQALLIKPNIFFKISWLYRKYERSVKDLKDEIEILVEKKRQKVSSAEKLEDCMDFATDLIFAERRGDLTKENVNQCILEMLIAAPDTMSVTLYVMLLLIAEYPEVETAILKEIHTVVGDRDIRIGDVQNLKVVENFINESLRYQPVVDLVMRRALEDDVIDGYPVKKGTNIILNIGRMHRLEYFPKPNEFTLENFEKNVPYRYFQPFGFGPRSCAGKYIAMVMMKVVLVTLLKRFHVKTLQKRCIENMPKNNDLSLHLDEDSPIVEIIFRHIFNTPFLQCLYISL
The assay is described as follows: Aromatase inhibition in the rat ovarian microsome assay. The class given is biochemical. Particulars: substrate (androstenedione) concentration 0.1 μM; rat ovarian microsomes. Here is the method:
In this test system, ovarian microsomes are obtained from rats treated with pregnant mares serum gonadotropin. Test compounds are added to reaction vials containing 0.1 μM 4-androstene-3,17-dione, 100,000 dpm 1,2[^3 H]-androstenedione, the microsomes and a NADPH generating system. The concentrations of the inhibitors tested ranged between 0.005 and 10 μM.

The subject of another assay is breast cancer. The note with it: Cancer Research, Vol. 42, Suppl. 8:3261s (1982); cited from earlier work.

Take `OC(c1ccc(Cl)cc1)(c1ccc(Cl)cc1)c1ccns1` [Example 1, α,α-Bis(4-chlorophenyl)-5-isothiazolemethanol]: the “Mean Uterine Weight” value with estrogen synthesis (200 ppm in feed (approximately 20 mg/kg/day), testosterone propionate-treated immature female Wistar rats, 5 animals, ^+ p < 0.05 vs testosterone-treated control (203.4)) worked out at 110.8 mg. Further, in the assay on estrogen synthesis (ovaries, 200 ppm in feed, [3H]-testosterone, ^+ p < 0.05 vs testosterone-treated control (0.25)), the “Mean Steroid Concentration, estriol” value is 0.88 femtomoles per milligram of protein. Besides, in the assay with estrogen synthesis (ovaries, 200 ppm in feed, [3H]-testosterone, testosterone-treated control 0.19), the “Mean Steroid Concentration, estrone” value is 0.44 femtomoles per milligram of protein. For the same molecule, in the assay on estrogen synthesis (ovaries, 200 ppm in feed, [3H]-testosterone, testosterone-treated control 1.70), the “Mean Steroid Concentration, estradiol” value was 1.18 femtomoles per milligram of protein.
`OC(c1ccccc1)(c1ccccc1)c1ccns1` [Example 2, α,α-Diphenyl-5-isothiazolemethanol]: the response on aromatase was half-maximal at 4.45 µM (EC50).
As to `CCC1(c2ccc(N)cc2)CCC(=O)NC1=O` (stereo not shown) [aminoglutethimide], the “Effect in treatment of breast cancer” value with breast cancer is “beneficial effect”.
On to `C[C@]12C=CC(=O)C=C1CC[C@@H]1[C@@H]2CC[C@]2(C)OC(=O)CC[C@@H]12` [testolactone], for which, in the assay with breast cancer, the “Effect in treatment of breast cancer” value was “beneficial effect”.
